Results on 18 compounds are retold here after patent US20230322761A1, “DEGRADATION OF BRUTON'S TYROSINE KINASE (BTK) BY CONJUGATION OF BTK INHIBITORS WITH E3 LIGASE LIGAND AND METHODS OF USE” (BEIGENE, LTD., priority 2020, published 2023).

In the assay the target is T1, BTK (Homo sapiens, UniProt Q06187).
T1 construct: endogenous in cells; host or cells: TMD-8 cells
Briefly: BTK degradation in TMD-8 cells, HTRF assay after 6 h treatment. The note with it: for DC50: IC50 (DC50) of BTK degradation. The format is cell-based. The essentials:
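TMD-8 cells treated for 6 h with 8 compound doses in 6-fold dilution steps from a 1 mM 500× DMSO stock (0.2% DMSO), then lysed 30 min at room temperature. BTK in lysate detected by HTRF (665/620 nm) after overnight antibody incubation; DC50 from four-parameter curve fit.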
(In general: TR-FRET usually uses a lanthanide donor and a delayed reading to cut background.)

T1 sequence (Q06187 whole entry): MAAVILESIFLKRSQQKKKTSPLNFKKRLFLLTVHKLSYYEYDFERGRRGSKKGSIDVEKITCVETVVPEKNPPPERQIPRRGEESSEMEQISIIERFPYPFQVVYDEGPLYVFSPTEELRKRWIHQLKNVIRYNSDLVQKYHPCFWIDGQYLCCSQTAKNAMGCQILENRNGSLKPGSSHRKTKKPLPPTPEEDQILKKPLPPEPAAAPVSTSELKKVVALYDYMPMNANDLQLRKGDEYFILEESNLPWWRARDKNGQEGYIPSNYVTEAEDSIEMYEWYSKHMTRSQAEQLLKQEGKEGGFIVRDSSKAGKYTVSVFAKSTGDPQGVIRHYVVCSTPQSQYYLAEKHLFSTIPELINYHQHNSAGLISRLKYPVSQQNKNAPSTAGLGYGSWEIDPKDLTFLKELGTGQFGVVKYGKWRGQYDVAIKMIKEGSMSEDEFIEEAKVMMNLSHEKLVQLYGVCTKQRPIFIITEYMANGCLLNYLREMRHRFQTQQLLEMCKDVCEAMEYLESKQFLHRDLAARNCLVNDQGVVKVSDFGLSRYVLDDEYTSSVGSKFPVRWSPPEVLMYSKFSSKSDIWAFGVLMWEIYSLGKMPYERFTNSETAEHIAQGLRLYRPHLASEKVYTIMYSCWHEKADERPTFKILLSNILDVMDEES

Regarding `Cc1cc(-c2n[nH]c3ncc(-c4ccc(N5CCN(CC6CCN(c7ccc(N8CCC(=O)NC8=O)cc7)CC6)CC5)cc4)cc23)c(F)cc1[C@@H](C)NC(=O)c1nc(C(C)(C)C)no1` [Example 46, (R)-3-(tert-butyl)-N-(1-(4-(5-(4-(4-((1-(4-(2,4-dioxotetrahydropyrimidin-1(2H)-yl)phenyl)piperidin-4-yl)methyl)piperazin-1-yl)phenyl)-1H-pyrazolo[3,4-b]pyridin-3-yl)-5-fluoro-2-methylphenyl)ethyl)-1,2,4-oxadiazole-5-carboxamide], the DC50 is 5.13 nM. This counts as single-digit nanomolar. On to `Cc1cc(-c2n[nH]c3ncc(-c4ccc(N5CCN(CCC6CCN(c7ccc([C@H]8CCC(=O)NC8=O)cc7)CC6)CC5)cc4)cc23)ccc1CNC(=O)c1noc(C(C)(C)C)n1` [Example 91, (R)-5-(tert-butyl)-N-(4-(5-(4-(4-(2-(1-(4-(2,6-dioxopiperidin-3-yl)phenyl)piperidin-4-yl)ethyl)piperazin-1-yl)phenyl)-1H-pyrazolo[3,4-b]pyridin-3-yl)-2-methylbenzyl)-1,2,4-oxadiazole-3-carboxamide], for which it took 1.97 nM to reach half-maximal degradation (DC50). On the same count and under the same terms, with `Cc1cc(-c2n[nH]c3ncc(-c4ccc(N5CCN(CCc6ccc([C@H]7CCC(=O)NC7=O)c(F)c6)CC5)cc4)cc23)ccc1[C@@H](C)NC(=O)c1noc(C(C)(C)C)n1` [Example 113, 5-(tert-butyl)-N—((R)-1-(4-(5-(4-(4-(4-((R)-2,6-dioxopiperidin-3-yl)-3-fluorophenethyl)piperazin-1-yl)phenyl)-1H-pyrazolo[3,4-b]pyridin-3-yl)-2-methylphenyl)ethyl)-1,2,4-oxadiazole-3-carboxamide] the figure was 17 nM.

As for `Cc1cc(-c2n[nH]c3ncc(-c4ccc(N5CCN(CC6CCN(c7ccc(N8CCC(=O)NC8=O)cc7)CC6)CC5)cc4)cc23)ccc1CNC(=O)c1noc(C(C)(C)C)n1` [Example 22, 5-(tert-butyl)-N-(4-(5-(4-(4-((1-(4-(2,4-dioxotetrahydropyrimidin-1(2H)-yl)phenyl)piperidin-4-yl)methyl)piperazin-1-yl)phenyl)-1H-pyrazolo[3,4-b]pyridin-3-yl)-2-methylbenzyl)-1,2,4-oxadiazole-3-carboxamide], half-maximal degradation (DC50) was put at 9.1 nM. The same compound displayed a Dmax (TMD8, maximum percentage of inhibition (degradation)) of 97.6%. The compound `Cc1cc(-c2n[nH]c3ncc(-c4ccc(N5CCN(CCc6ccc(C7CCC(=O)NC7=O)cc6)CC5)cc4)cc23)ccc1CNC(=O)c1cn(C(C)(C)C)nn1` (stereo not shown) [Example 108, 1-(tert-butyl)-N-(4-(5-(4-(4-(4-(2,6-dioxopiperidin-3-yl)phenethyl)piperazin-1-yl)phenyl)-1H-pyrazolo[3,4-b]pyridin-3-yl)-2-methylbenzyl)-1H-1,2,3-triazole-4-carboxamide] yielded a DC50 of 4.13 nM. In turn, `Cc1cc(-c2n[nH]c3ncc(-c4ccc(C5CCN(CCc6ccc([C@H]7CCC(=O)NC7=O)cc6)CC5)nc4)cc23)ccc1[C@@H](C)NC(=O)c1noc(C(C)(C)C)n1` [Example 152, 5-(tert-butyl)-N—((R)-1-(4-(5-(6-(1-(4-((R)-2,6-dioxopiperidin-3-yl)phenethyl)piperidin-4-yl)pyridin-3-yl)-1H-pyrazolo[3,4-b]pyridin-3-yl)-2-methylphenyl)ethyl)-1,2,4-oxadiazole-3-carboxamide] showed a DC50 of 1.03 nM. The same measure, in the same setting: with `Cc1cc(-c2n[nH]c3ncc(-c4ccc(N5CCN(CC6CCN(c7ccc(N8CCC(=O)NC8=O)c(C)c7)CC6)CC5)cc4)cc23)ccc1[C@@H](C)NC(=O)c1cc(C(C)(C)C)on1` [Example 172, (R)-5-(tert-butyl)-N-(1-(4-(5-(4-(4-((1-(4-(2,4-dioxotetrahydropyrimidin-1(2H)-yl)-3-methylphenyl)piperidin-4-yl)methyl)piperazin-1-yl)phenyl)-1H-pyrazolo[3,4-b]pyridin-3-yl)-2-methylphenyl)ethyl)isoxazole-3-carboxamide] the figure was 20.8 nM; with `Cc1cc(-c2n[nH]c3ncc(-c4ccc(N5CCN(C6CCN(c7ccc(NC8CCC(=O)NC8=O)cc7)CC6)CC5)cc4)cc23)ccc1[C@@H](C)NC(=O)c1noc(C(C)(C)C)n1` (stereo partly drawn) [Example 180, 5-(tert-butyl)-N-((1R)-1-(4-(5-(4-(4-(1-(4-((2,6-dioxopiperidin-3-yl)amino)phenyl)piperidin-4-yl)piperazin-1-yl)phenyl)-1H-pyrazolo[3,4-b]pyridin-3-yl)-2-methylphenyl)ethyl)-1,2,4-oxadiazole-3-carboxamide], 4.81 nM; with `Cc1cc(-c2n[nH]c3ncc(-c4ccc(N5CCN(CC6CCN(c7ccc(N8CCC(=O)NC8=O)cc7)CC6)CC5)cc4)cc23)ccc1CNC(=O)c1noc(C(C)(C)C(F)(F)F)n1` [Example 41, N-(4-(5-(4-(4-((1-(4-(2,4-dioxotetrahydropyrimidin-1(2H)-yl)phenyl)piperidin-4-yl)methyl)piperazin-1-yl)phenyl)-1H-pyrazolo[3,4-b]pyridin-3-yl)-2-methylbenzyl)-5-(1,1,1-trifluoro-2-methylpropan-2-yl)-1,2,4-oxadiazole-3-carboxamide], 7.05 nM.

`Cc1cc(CCN2CCN(c3ccc(-c4cnc5[nH]nc(-c6ccc([C@@H](C)NC(=O)c7noc(C(C)(C)C)n7)c(C)c6F)c5c4)cc3)CC2)ncc1C1CCC(=O)NC1=O` (stereo partly drawn) [Example 148, 5-(tert-butyl)-N-((1R)-1-(4-(5-(4-(4-(2-(5-(2,6-dioxopiperidin-3-yl)-4-methylpyridin-2-yl)ethyl)piperazin-1-yl)phenyl)-1H-pyrazolo[3,4-b]pyridin-3-yl)-3-fluoro-2-methylphenyl)ethyl)-1,2,4-oxadiazole-3-carboxamide] registered a DC50 of 1.84 nM. For the compound `Cc1cc(-c2n[nH]c3ncc(-c4ccc(C5CCN(CCc6ccc([C@@H]7CCC(=O)NC7=O)cc6)CC5)nc4)cc23)ccc1[C@@H](C)NC(=O)c1noc(C(C)(C)C)n1` [Example 153, 5-(tert-butyl)-N—((R)-1-(4-(5-(6-(1-(4-((S)-2,6-dioxopiperidin-3-yl)phenethyl)piperidin-4-yl)pyridin-3-yl)-1H-pyrazolo[3,4-b]pyridin-3-yl)-2-methylphenyl)ethyl)-1,2,4-oxadiazole-3-carboxamide], half-maximal degradation (DC50) was put at 11.8 nM. Still for that read-out and setting: with `Cc1cc(-c2n[nH]c3ncc(-c4ccc(N5CC6CC5CN6CC5CCN(c6ccc(N7CCC(=O)NC7=O)cc6)CC5)cn4)cc23)ccc1[C@@H](C)NC(=O)c1noc(C(C)(C)C)n1` (stereo partly drawn) [Example 127, 5-(tert-butyl)-N-((1R)-1-(4-(5-(5-(5-((1-(4-(2,4-dioxotetrahydropyrimidin-1(2H)-yl)phenyl)piperidin-4-yl)methyl)-2,5-diazabicyclo[2.2.1]heptan-2-yl)pyridin-2-yl)-1H-pyrazolo[3,4-b]pyridin-3-yl)-2-methylphenyl)ethyl)-1,2,4-oxadiazole-3-carboxamide] the figure was 6.79 nM; with `COc1cc(-c2cnc3[nH]nc(-c4ccc([C@@H](C)NC(=O)c5noc(C(C)(C)C)n5)c(C)c4)c3c2)ccc1N1CCN(CC2CCN(c3ccc(N4CCC(=O)NC4=O)cc3)CC2)CC1` [Example 120, (R)-5-(tert-butyl)-N-(1-(4-(5-(4-(4-((1-(4-(2,4-dioxotetrahydropyrimidin-1(2H)-yl)phenyl)piperidin-4-yl)methyl)piperazin-1-yl)-3-methoxyphenyl)-1H-pyrazolo[3,4-b]pyridin-3-yl)-2-methylphenyl)ethyl)-1,2,4-oxadiazole-3-carboxamide], 5.82 nM; with `Cc1cc(-c2n[nH]c3ncc(-c4ccc(N5CCN(CCc6ccc([C@@H]7CCC(=O)NC7=O)cc6)CC5)cc4)cc23)ccc1CNC(=O)c1cn(C(C)(C)C)nn1` [Example 151, (S)-1-(tert-butyl)-N-(4-(5-(4-(4-(4-(2,6-dioxopiperidin-3-yl)phenethyl)piperazin-1-yl)phenyl)-1H-pyrazolo[3,4-b]pyridin-3-yl)-2-methylbenzyl)-1H-1,2,3-triazole-4-carboxamide], 17.8 nM.

On to `Cc1cc(N2CCC(CN3CCN(c4ccc(-c5cnc6[nH]nc(-c7cc(CO)c([C@@H](C)NC(=O)c8nc(C(C)(C)C)no8)cc7F)c6c5)cc4)CC3)CC2)ccc1N1CCC(=O)NC1=O` [Example 190, (R)-3-(tert-butyl)-N-(1-(4-(5-(4-(4-((1-(4-(2,4-dioxotetrahydropyrimidin-1(2H)-yl)-3-methylphenyl)piperidin-4-yl)methyl)piperazin-1-yl)phenyl)-1H-pyrazolo[3,4-b]pyridin-3-yl)-5-fluoro-2-(hydroxymethyl)phenyl)ethyl)-1,2,4-oxadiazole-5-carboxamide], for which the DC50 turned out to be 6.11 nM. This DC50 lies about 2.9-fold lower than the previous one. `Cc1cc(-c2n[nH]c3ncc(-c4ccc(N5CCN(CC(F)(F)c6ccc(C7CCC(=O)NC7=O)cn6)CC5)cc4)cc23)ccc1[C@@H](C)NC(=O)c1noc(C(C)(C)C)n1` (stereo partly drawn) [Example 193, 5-(tert-butyl)-N-((1R)-1-(4-(5-(4-(4-(2-(5-(2,6-dioxopiperidin-3-yl)pyridin-2-yl)-2,2-difluoroethyl)piperazin-1-yl)phenyl)-1H-pyrazolo[3,4-b]pyridin-3-yl)-2-methylphenyl)ethyl)-1,2,4-oxadiazole-3-carboxamide] registered a DC50 of 3.06 nM. The same measure, in the same setting: with `Cc1cc(-c2n[nH]c3ncc(-c4ccc(N5CCC(COc6ccc(C7CCC(=O)NC7=O)cc6)CC5)cc4)cc23)ccc1[C@@H](C)NC(=O)c1noc(C(C)(C)C)n1` (stereo partly drawn) [Example 183, 5-(tert-butyl)-N-((1R)-1-(4-(5-(4-(4-((4-(2,6-dioxopiperidin-3-yl)phenoxy)methyl)piperidin-1-yl)phenyl)-1H-pyrazolo[3,4-b]pyridin-3-yl)-2-methylphenyl)ethyl)-1,2,4-oxadiazole-3-carboxamide] the figure was 19.8 nM.

Regarding `Cc1cc(-c2n[nH]c3ncc(-c4ccc(N5CCN(CCc6ccc(OC7CCC(=O)NC7=O)cc6)CC5)cc4)cc23)ccc1[C@@H](C)NC(=O)c1noc(C(C)(C)C)n1` (stereo partly drawn) [Example 123, 5-(tert-butyl)-N-((1R)-1-(4-(5-(4-(4-(4-((2,6-dioxopiperidin-3-yl)oxy)phenethyl)piperazin-1-yl)phenyl)-1H-pyrazolo[3,4-b]pyridin-3-yl)-2-methylphenyl)ethyl)-1,2,4-oxadiazole-3-carboxamide], it took 14.2 nM to reach half-maximal degradation (DC50).

As a reminder, the DC50 is the concentration at which degradation of the target reaches its halfway point. High values mean degradation only at high concentration, low ones degradation at low concentration. By Dmax is commonly meant the largest share of the target that was removed. Read a low Dmax as shallow degradation.
